From publication PMC5848165 (Toxins, 2018)
Residues, ends and D or L forms follow the SMILES beside them.

How the values were obtained:
[1] = target: T1, Nav1.7 D816R (Homo sapiens, UniProt Q15858, D827R); assay: Whole-cell patch clamp, Nav1.7 mutant D816R in HEK293 cells; assay type: cell-based
T1 construct: expressed in transfected cells; host or cells: HEK293 (HEK293T) cells, transient
Description: We next investigated the critical residues in DIIS3-S4 linker that determined the sensitivity of Nav1.7 to JZTX-34. An acidic residue, D816, is present in the DIIS3-S4 linker of Nav1.7, while the corresponding residue in Nav1.5 is an alkaline amino acid, R800. To determine whether the acidic residue D816 occupies an important role in toxin binding, we constructed two mutants: D816R of Nav1.7 and R800D of Nav1.5. One µM of JZTX-34 inhibited 54.3 ± 5.2% of WT Nav1.7 currents (Figure 4A), but only 16.8 ± 4.6% currents of D816R were inhibited at the same concentration (Figure 4B). […] To further confirm the key role of D816R in blocking Nav1.7 by JZTX-34, we examined the effect of JZTX-34 on Nav1.5 mutant R800D. […] Thus, the acidic residue D816 in DIIS3-S4 linker may be critical for the sensitivity of Nav1.7 to JZTX-34.
Figure 4 Effects of JZTX-34 on mutants of Nav1.7 and Nav1.5. (A) Amino acid sequence alignment of DII S3-S4 linker of Nav1.5 and Nav1.7 and schematic diagram of sodium channel α subunit. The positions of amino acids of interest are shaded in bold black. […]
(§1) The HEK293T cells were maintained in standard culture conditions (5% CO2 and 37 °C). […] After culturing for 36–72 h, cells with obvious green fluorescence were selected for sodium currents recordings the internal solution for sodium currents recording that contained (in mM) 140 CsF, 5 NaCl, 10 HEPES, 3 Na2-ATP, and 10 EGTA. […]
(§2) Sodium currents were recorded from DRG, HEK293, and ND cells by the whole-cell patch-clamp technique at 25 °C. […] Experiments date were acquired from whole-cell Axon 700B patch clamp amplifier (Molecular Devices, Sunnyvale, CA, USA) and analyzed by the program Clampfit10.0 (Molecular Devices, Sunnyvale, CA, USA) and Sigmaplot. […]
Data from Axon 700B patch clamp were analyzed by Clampfit10.0 (Molecular Devices, Sunnyvale, CA, USA). […] The G-V curves were obtained by calculating the conductance (G) at each voltage (V) using the equation G = I/(V1 − Vrev), with Vrev being the reversal potential determined for each cell individually. […]

[2] = target: T2, hNav1.7 (Homo sapiens, UniProt Q15858); assay: Whole-cell patch clamp, WT Nav1.7 in HEK293 cells; assay type: cell-based
T2 construct: expressed in transfected cells; host or cells: HEK293 (HEK293T) cells, transient
T2 sequence (Q07699 19-218): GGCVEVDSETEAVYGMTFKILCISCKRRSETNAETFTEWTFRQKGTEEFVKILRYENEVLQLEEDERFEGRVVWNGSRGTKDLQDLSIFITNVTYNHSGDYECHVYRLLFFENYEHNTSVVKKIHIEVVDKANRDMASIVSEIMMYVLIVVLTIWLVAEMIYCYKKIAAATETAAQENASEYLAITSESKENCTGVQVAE
T2 sequence (Q15858 other isoform, or with tags, fused parts or gaps): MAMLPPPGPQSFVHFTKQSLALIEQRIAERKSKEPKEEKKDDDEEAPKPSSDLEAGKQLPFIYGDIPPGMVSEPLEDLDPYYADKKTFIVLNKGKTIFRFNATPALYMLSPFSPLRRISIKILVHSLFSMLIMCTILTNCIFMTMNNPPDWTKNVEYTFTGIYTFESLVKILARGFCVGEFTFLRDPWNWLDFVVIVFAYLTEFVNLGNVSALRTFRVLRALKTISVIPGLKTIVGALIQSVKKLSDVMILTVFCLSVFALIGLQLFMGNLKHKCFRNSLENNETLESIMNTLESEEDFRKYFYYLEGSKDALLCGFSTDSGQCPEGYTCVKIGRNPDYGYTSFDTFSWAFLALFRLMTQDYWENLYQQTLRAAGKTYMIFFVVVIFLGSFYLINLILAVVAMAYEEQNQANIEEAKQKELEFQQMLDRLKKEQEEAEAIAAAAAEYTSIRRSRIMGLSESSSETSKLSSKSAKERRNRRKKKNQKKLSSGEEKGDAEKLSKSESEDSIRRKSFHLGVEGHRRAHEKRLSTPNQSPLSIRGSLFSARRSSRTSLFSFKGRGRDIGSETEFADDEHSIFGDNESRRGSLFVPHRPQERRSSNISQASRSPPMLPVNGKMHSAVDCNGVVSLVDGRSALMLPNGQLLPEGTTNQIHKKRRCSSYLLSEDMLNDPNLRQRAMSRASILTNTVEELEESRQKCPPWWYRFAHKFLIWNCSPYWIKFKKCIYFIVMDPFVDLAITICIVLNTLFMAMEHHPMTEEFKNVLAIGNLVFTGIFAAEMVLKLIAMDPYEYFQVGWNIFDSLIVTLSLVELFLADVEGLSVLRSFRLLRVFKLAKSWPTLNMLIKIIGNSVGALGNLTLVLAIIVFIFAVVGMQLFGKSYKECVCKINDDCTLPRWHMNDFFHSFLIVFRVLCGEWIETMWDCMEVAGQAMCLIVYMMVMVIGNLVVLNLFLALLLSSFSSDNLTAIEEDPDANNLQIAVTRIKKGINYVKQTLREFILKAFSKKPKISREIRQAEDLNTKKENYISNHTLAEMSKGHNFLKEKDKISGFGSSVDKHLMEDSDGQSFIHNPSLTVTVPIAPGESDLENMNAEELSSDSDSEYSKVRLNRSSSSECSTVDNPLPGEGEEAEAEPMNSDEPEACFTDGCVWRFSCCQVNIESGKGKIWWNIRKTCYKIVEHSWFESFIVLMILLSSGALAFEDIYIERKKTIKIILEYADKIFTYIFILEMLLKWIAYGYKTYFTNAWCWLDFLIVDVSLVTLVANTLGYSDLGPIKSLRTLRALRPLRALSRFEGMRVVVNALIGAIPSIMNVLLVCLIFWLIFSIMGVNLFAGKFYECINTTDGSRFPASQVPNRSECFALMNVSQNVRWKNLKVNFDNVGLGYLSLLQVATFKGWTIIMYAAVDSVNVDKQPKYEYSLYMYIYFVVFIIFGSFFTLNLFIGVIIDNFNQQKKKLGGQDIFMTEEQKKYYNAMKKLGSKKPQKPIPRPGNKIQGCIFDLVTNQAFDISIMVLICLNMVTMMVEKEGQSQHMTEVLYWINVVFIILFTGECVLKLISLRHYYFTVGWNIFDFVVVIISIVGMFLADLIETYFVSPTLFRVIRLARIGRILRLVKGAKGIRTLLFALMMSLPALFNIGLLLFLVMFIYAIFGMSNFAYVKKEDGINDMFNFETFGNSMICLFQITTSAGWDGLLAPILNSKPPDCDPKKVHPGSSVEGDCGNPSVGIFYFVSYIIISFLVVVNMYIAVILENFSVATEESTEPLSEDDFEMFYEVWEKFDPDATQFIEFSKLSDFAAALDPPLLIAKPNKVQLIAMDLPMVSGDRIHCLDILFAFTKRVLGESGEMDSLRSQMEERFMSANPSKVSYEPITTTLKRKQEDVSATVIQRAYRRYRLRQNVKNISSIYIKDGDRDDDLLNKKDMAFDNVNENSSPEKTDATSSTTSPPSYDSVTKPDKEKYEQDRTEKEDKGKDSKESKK
Description: Nine sodium channel subtypes have been identified and classified as TTX-S (Nav1.1–Nav1.4, Nav1.6, and Nav1.7) or TTX-R types (Nav1.5, Nav1.8, and Nav1.9). […] However, the subtype selectivity of JZTX-34 on the subtype of sodium channel is still unknown. In this work, effects of JZTX-34 on VGSC subtypes (Nav1.1–Nav1.8) were examined. Nav1.1–Nav1.7 were transfected into HEK293 cells and Nav1.8 currents were expressed in ND cells. Inward sodium currents were elicited by a 50 ms depolarizing potential to −10 mV from a holding potential of −80 mV every 5 s. […] No effects on other sodium channel subtypes were found (Nav1.1, Nav1.2, Nav1.4–Nav1.6, and Nav1.8) (Figure S2).
Figure 2 Selectivity of JZTX-34 on sodium channel subtypes. All inward sodium channels were elicited by a 50 ms depolarizing potential to −10 mV from a holding potential of −80 mV every 5 s. One μM JZTX-34 was added to rNav1.3. (A) hNav1.7. (B,C) Dose-dependent inhibition of JZTX-34 on rNav1, rNav3, and hNav1.7 (n = 5). […]
as §1, §2
Data from Axon 700B patch clamp were analyzed by Clampfit10.0 (Molecular Devices, Sunnyvale, CA, USA). […] The G-V curves were obtained by calculating the conductance (G) at each voltage (V) using the equation G = I/(V1 − Vrev), with Vrev being the reversal potential determined for each cell individually. […] All the results from patch clamp and animal models are expressed as means ± standard error of the mean (SEM). […]

T1 sequence (Q15858 other isoform, or with tags, fused parts or gaps D816R): as the sequence (Q15858 other isoform, or with tags, fused parts or gaps) above, with D816R counted along it
T1 sequence (Q07699 19-218, further chain): as the sequence (Q07699 19-218) above

CC(C)C[C@@H]1NC(=O)[C@H](Cc2c[nH]c3ccccc23)NC(=O)[C@H](CCC(=O)O)NC(=O)[C@H](CCCNC(=N)N)NC(=O)[C@@H](NC(=O)[C@H](C)N)CSSC[C@@H]2NC(=O)[C@@H]3CSSC[C@@H](C(=O)N[C@H](C(=O)N[C@@H](Cc4c[nH]c5ccccc45)C(=O)N[C@@H](CC(=O)O)C(=O)N[C@@H](Cc4c[nH]c5ccccc45)C(=O)N[C@H](C(=O)N[C@H](C(=O)O)C(C)C)[C@@H](C)O)C(C)C)NC(=O)[C@H](Cc4c[nH]cn4)NC(=O)[C@H](Cc4ccc(O)cc4)NC(=O)[C@@H]4CCCN4C(=O)[C@H](Cc4c[nH]c5ccccc45)NC(=O)[C@H](CCCCN)NC(=O)[C@H](CCCCN)NC(=O)[C@H](CCCNC(=N)N)NC(=O)[C@H](CSSC[C@H](NC(=O)CNC(=O)CNC1=O)C(=O)N[C@@H](CO)C(=O)N[C@@H](CCCCN)C(=O)N[C@@H](CC(=O)O)C(=O)N[C@@H](C)C(=O)N[C@@H](CC(=O)O)C(=O)N3)NC(=O)[C@H](CCC(=O)O)NC(=O)[C@H](CC(C)C)NC(=O)[C@H](Cc1c[nH]cn1)NC(=O)[C@H](C)NC2=O [JZTX-34, Jingzhaotoxin-34] (HELM PEPTIDE1{A.C.R.E.W.L.G.G.C.S.K.D.A.D.C.C.A.H.L.E.C.R.K.K.W.P.Y.H.C.V.W.D.W.T.V}$PEPTIDE1,PEPTIDE1,2:R3-16:R3|PEPTIDE1,PEPTIDE1,9:R3-21:R3|PEPTIDE1,PEPTIDE1,15:R3-29:R3$$$V2.0; N-terminus and C-terminus assumed)
inhibition at 1 µM ([1]; HEK293, 1 µM, read-out: inhibition of Nav1.7 D816R currents): 16.8 ± 4.6%
IC50 ([1]; Hill fit, n = 5): 19.5 µM
decrease of binding affinity by D816R vs WT Nav1.7 ([1]; relative to WT Nav1.7): about 32 fold
inhibition at 1 µM ([2]; 1 µM, mutant comparison experiment (Figure 4), read-out: inhibition of WT Nav1.7 currents): 54.3 ± 5.2%
reduction of Nav1.7 currents ([2]; 1 µM, −10 mV from −80 mV holding, mean ± S.E., subtype selectivity experiment (Figure 2)): 54.6 ± 5.3%
IC50 ([2]; −10 mV from −80 mV holding, Hill fit, n = 5): 0.61 µM
